Literature values as cited in patent US11877993B1, “Gamma-hydroxybutyrate salts for the treatment of psychological disorders” (priority 2021, dated 2024).

System: patients with severe PTSD
Details: MDMA-assisted therapy

CNC(C)Cc1ccc2c(c1)OCO2 (stereo not drawn) [MDMA, 3,4-methylenedioxymethamphetamine]
Tolerability (individuals with severe PTSD, even with comorbidities): well-tolerated | Attenuation in CAPS-5 score compared with placebo, effect size d (severe PTSD, P<0.0001): 0.91 | Decrease of SDS total score, effect size d (severe PTSD, P=0.0116): 0.43
